# Data from patent US5196513A, “Synthetic peptides derived from the beta-subunit of human thyroid stimulating hormone” (Mayo Foundation for Medical Education and Research, priority 1991, dated 1993).
# Residues, ends and D or L forms follow the SMILES beside them.
# Key:
# [1] = biological target: T1, porcine TSH receptor (porcine thyroid membranes) (Sus scrofa, UniProt Q8SPP9); test: Porcine thyroid membrane TSH radio-receptor assay (inhibition of 125I-bTSH binding); conditions: concentration inhibiting 125I-bTSH binding to porcine thyroid membrane by 50%; mean ± se of at least 3 assays
# T1 construct: Frozen porcine thyroid glands were purchased; tissue Pel-Freez Biologicals; host or cells: porcine thyroid glands, crude membrane preparation
# T1 sequence (Q8SPP9 22-764): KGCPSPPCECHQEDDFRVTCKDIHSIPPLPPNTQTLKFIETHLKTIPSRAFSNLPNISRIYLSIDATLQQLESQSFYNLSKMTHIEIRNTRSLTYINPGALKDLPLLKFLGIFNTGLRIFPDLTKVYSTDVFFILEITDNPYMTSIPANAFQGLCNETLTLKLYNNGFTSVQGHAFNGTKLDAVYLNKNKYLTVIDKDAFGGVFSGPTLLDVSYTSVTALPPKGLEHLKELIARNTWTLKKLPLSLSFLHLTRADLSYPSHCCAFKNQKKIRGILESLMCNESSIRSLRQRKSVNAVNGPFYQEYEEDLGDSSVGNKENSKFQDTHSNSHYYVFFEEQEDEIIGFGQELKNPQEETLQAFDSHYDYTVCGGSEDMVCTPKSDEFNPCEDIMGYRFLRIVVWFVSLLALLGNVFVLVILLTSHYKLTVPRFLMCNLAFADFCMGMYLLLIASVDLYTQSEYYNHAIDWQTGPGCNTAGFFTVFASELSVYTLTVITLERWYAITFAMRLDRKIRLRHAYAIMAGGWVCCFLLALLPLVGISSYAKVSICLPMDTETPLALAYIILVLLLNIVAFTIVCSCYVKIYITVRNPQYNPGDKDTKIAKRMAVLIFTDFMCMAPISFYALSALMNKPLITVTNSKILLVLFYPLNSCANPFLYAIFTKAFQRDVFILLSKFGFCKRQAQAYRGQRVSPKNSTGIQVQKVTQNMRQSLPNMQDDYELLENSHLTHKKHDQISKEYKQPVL
# Text: Frozen porcine thyroid glands were purchased (Pel-Freez Biologicals, Rogers, Ak.) and prepared using the same procedures as for the human glands.
# (§1) Highly purified bTSH (30 U/mg, supplied by Dr. J. G. Pierce, formerly of UCLA) was radio-iodinated (Na^125 I, Amersham, Chicago) by a lactoperoxidase technique to a specific activity averaging 40-50 μCi/μg as previously described, Takahashi et al., supra, then purified by Sephadex G-100 chromatography.
# (§2) The TSH radio-receptor assay (RRA) utilized for the studies has been well described previously; see Takahashi et al., supra and Morris et al., Endocrinology, 123:456-462 (1988), the disclosure of which is incorporated by reference herein. Briefly, for either human or porcine thyroid RRA, the incubation mixture consisted of the following: 10 mg equivalents of wet weight (mg eq) crude thyroid membrane preparation, 0.124 ng [^125 I]iodo-bTSH (approximately 20,000 cpm), 0.2% Triton X-100, and the noted amounts of synthetic peptides or unlabeled bTSH in 0.5 ml 40 mM Tris, 0.1% BSA, pH 7.4. Bound label was separated from free after 2 hrs incubation at 25° C. by addition of a 1 ml 30% polyethylene glycol (PEG, Baker, Phillipsburg, N.J.) 6000 in 1M NaCl and centrifugation. The resulting pellet was counted in a gamma counter. Non-specific binding was determined by addition of a 100 mU/ml crude bTSH (Sigma, St. Louis).
# [2] = biological target: T2, TSH receptor on human thyroid membranes (Homo sapiens, UniProt P16473); test: Human thyroid membrane TSH radio-receptor assay (inhibition of 125I-bTSH binding); conditions: for EC50: concentration inhibiting 125I-bTSH binding to human thyroid membrane by 50%, mean ± se of at least 3 assays; for Inhibition of TSH binding to human thyroid membrane (in words): human thyroid membrane RRA
# T2 construct: Crude membrane preparations were prepared from the frozen tissue; from tissue; host or cells: human thyroid tissue (Graves' disease patients), crude 2000 x g membrane fraction
# T2 sequence (P16473 21-764): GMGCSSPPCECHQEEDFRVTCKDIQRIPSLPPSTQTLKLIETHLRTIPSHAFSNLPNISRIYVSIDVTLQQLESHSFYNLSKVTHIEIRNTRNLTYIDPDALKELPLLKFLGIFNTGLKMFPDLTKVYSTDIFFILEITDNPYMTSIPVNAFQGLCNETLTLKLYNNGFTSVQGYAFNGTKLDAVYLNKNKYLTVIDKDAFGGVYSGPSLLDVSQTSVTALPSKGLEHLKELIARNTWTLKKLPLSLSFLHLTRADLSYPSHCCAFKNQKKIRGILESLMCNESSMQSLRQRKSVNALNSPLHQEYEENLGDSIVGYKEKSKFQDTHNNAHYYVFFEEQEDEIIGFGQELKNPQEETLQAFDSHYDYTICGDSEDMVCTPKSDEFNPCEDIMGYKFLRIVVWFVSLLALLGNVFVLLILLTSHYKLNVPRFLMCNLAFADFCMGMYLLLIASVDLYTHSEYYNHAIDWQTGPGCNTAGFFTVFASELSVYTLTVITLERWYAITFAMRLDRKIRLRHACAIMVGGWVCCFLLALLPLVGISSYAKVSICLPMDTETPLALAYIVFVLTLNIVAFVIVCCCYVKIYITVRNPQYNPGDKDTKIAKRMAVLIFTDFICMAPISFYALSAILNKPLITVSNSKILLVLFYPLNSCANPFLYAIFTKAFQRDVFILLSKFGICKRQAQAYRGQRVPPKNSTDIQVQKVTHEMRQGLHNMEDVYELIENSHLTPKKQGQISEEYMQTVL
# Description: Thyroid tissue from patients with Graves' disease was obtained at surgery and promptly frozen and maintained at -70° C. Crude membrane preparations were prepared from the frozen tissue as previously described, Takahashi et al., J. Clin. Endocrinol. Metab., 47:870-876 (1978), the disclosure of which is incorporated by reference herein. Briefly, the tissue was homogenized with a Polytron homogenizer (Brinkmann Instruments,Westbury, N.Y.), and the 2000×g fraction was collected by centrifugation, washed, and resuspended in 40 mM Tris, 200 mM sucrose, pH 7.4. Membrane preparations were maintained at -70° C. until assay.
# as §1, §2
# FRTL5 cells = FRTL5 cells (Rattus norvegicus, UniProt P21463); test: TSab bioassay, inhibition of TSab-stimulated cAMP generation in FRTL5 cells; format: cell-based; conditions: for Serum samples in which TSab-stimulated cAMP was significantly inhibited (p<0.05) / samples tested: peptide 150 μg/ml; for Inhibition of TSab-stimulated cAMP generation (in words): peptide 50 and 150 μg/ml
# Chain of FRTL5 cells (P21463 22-764): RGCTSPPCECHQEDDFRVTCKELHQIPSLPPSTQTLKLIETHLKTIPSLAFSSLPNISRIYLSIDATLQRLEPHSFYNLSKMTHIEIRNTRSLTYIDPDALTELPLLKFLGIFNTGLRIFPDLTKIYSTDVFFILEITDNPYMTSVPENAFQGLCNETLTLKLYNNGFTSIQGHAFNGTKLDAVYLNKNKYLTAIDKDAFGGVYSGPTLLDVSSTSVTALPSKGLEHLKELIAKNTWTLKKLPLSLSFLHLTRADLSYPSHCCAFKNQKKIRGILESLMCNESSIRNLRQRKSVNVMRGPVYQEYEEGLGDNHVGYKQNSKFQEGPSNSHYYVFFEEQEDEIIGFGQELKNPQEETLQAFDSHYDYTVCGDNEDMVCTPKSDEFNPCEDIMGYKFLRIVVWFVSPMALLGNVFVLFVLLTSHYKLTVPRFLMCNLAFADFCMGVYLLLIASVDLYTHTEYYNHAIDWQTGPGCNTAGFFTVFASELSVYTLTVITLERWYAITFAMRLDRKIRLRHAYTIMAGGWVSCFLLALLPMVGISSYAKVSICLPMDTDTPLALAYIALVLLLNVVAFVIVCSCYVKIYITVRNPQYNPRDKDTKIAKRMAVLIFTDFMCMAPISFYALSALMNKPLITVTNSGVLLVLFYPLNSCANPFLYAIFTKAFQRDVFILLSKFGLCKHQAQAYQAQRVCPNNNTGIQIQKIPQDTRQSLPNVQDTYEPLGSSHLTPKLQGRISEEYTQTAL
# Description: FRTL5 cells were cultured in Hams F-12 medium supplemented with 5% calf serum and a preparation containing 6 hormones (6H), including 10 mU/ml bTSH (Sigma, St. Louis, Mo.), as previously described. Ambesi-Impiombato et al., Proc. Natl. Acad. Sci. U.S.A., 77:3455 (1980), the disclosure of which is incorporated by reference herein. The cells were enzymatically removed from flasks and plated in 24 well plates containing 6H at a density of 150,000 cells per well. After 4 days, the cells were washed and the media replaced with media containing insulin only (1H). All subsequent assays were performed on cells deprived of TSH for 5-7 days.
# Serum samples from 15 patients with elevated TSab levels were selected from the clinical chemistry laboratory. The TSab values, expressed as an index, [formula] 63:707 (1988)]ranged from 10-20 with an average of 13.8±3.3. Normal serum has an index of less than 1.3.
# The bioassay described by Kasagi et al., supra, with modifications as previously noted above, was used. The immunoglobulins were precipitated from 2 ml of TSab-containing serum with 6 ml of polyethylene glycol 6,000 (Baker; Phillipsburg, N.J.), centrifuged at 3,000×g for 20 minutes, and resuspended in 4 ml of NaCl-free HBSS with 0.5 mM IBMX and 0.5% BSA. The plated cells were washed with NaCl-free HBSS and the crude immunoglobulin extract, mixed with various concentrations of β-subunit peptides, was added in duplicate to the wells (total volume 200 μl/well). The cells were incubated for 2 hours at 37° C. and 5% CO2. The samples were then removed from the cells and a portion diluted 1:50 in NaOAc buffer, pH 6.2. A 25 μl aliquot of this was then used in a cAMP RIA as described above. The basal cAMP levels were determined for each plate of cells in the absence of immunoglobulin extract and β-peptides. A maximal cAMP level was attained by stimulating the cells with the immunoglobulin extract only. The percent increase in cAMP levels above basal was calculated as: [formula] as previously described (see Morris et al., supra). The percent inhibition of cAMP production by the β-subunit peptides was calculated as described above for TSH-stimulated cells, substituting pmol cAMP crude immunoglobulin for pmol cAMP TSH.
# Inhibition of TSab activity was tested by comparing the replicates of cAMP levels generated in the presence of peptide to those generated by TSab alone using Student's T test for unpaired samples. Mean inhibition by the various doses of synthetic peptide for the patient group was tested by comparison with maximum cAMP response within each patient sample using the T test for paired samples.
Structure (SMILES),EC50 [1] [µM],EC50 [2] [µM],Serum samples in which TSab-stimulated cAMP was significantly inhibited (p<0.05) / samples tested (FRTL5 cells),Inhibition of TSab-stimulated cAMP generation (in words) (FRTL5 cells; listed as 71-85),Inhibition of TSH binding to human thyroid membrane (in words) [2],Inhibition of TSab-stimulated cAMP generation (in words) (FRTL5 cells)
CC[C@H](C)[C@H](N)C(=O)N[C@@H](CCC(=O)O)C(=O)N[C@@H](CCCNC(=N)N)C(=O)N[C@@H](CCCNC(=N)N)C(=O)N[C@@H](CCC(=O)O)C(=O)N[C@@H](CS)C(=O)N[C@@H](C)C(=O)N[C@@H](Cc1ccc(O)cc1)C(=O)N[C@@H](CS)C(=O)N[C@@H](CC(C)C)C(=O)N[C@H](C(=O)N[C@H](C(=O)N[C@@H](CC(N)=O)C(=O)N[C@H](C(=O)N[C@H](C(N)=O)[C@@H](C)O)[C@@H](C)O)[C@@H](C)CC)[C@@H](C)O [β11-25] (H-IERRECAYCLTINTT-NH2),186 ± 28,> 1000,,,inactive,
CC[C@H](C)[C@H](NC(=O)[C@@H](N)[C@@H](C)O)C(=O)N[C@@H](CC(N)=O)C(=O)N[C@H](C(=O)N[C@H](C(=O)N[C@H](C(=O)N[C@@H](CS)C(=O)N[C@@H](C)C(=O)NCC(=O)N[C@@H](Cc1ccc(O)cc1)C(=O)N[C@@H](CS)C(=O)N[C@@H](CCSC)C(=O)N[C@H](C(=O)N[C@@H](CCCNC(=N)N)C(=O)N[C@@H](CC(=O)O)C(N)=O)[C@@H](C)O)[C@@H](C)CC)[C@@H](C)O)[C@@H](C)O [β21-35] (H-TINTTICAGYCMTRD-NH2),> 1000,> 1000,,,,
CC[C@H](C)[C@H](NC(=O)[C@H](CC(=O)O)NC(=O)[C@H](CCCNC(=N)N)NC(=O)[C@@H](NC(=O)[C@H](CCSC)NC(=O)[C@@H](N)CS)[C@@H](C)O)C(=O)N[C@@H](CC(N)=O)C(=O)NCC(=O)N[C@@H](CCCCN)C(=O)N[C@@H](CC(C)C)C(=O)N[C@@H](Cc1ccccc1)C(=O)N[C@@H](CC(C)C)C(=O)N1CCC[C@H]1C(=O)N[C@@H](CCCCN)C(=O)N[C@@H](Cc1ccc(O)cc1)C(N)=O [β31-45] (H-CMTRDINGKLFLPKY-NH2),200 ± 36,186 ± 25,,,,
CC[C@H](C)[C@H](NC(=O)[C@H](Cc1ccccc1)NC(=O)[C@H](CC(=O)O)NC(=O)[C@H](CCCNC(=N)N)NC(=O)[C@H](Cc1ccc(O)cc1)NC(=O)[C@@H](NC(=O)[C@H](CS)NC(=O)[C@@H](N)C(C)C)[C@@H](C)O)C(=O)N[C@@H](Cc1ccc(O)cc1)C(=O)N[C@@H](CCCNC(=N)N)C(=O)N[C@H](C(=O)N[C@H](C(=O)N[C@@H](CCC(=O)O)C(=O)N[C@H](C(=O)N1CCC[C@H]1C(N)=O)[C@@H](C)CC)C(C)C)[C@@H](C)O [β51-65] (H-VCTYRDFIYRTVEIP-NH2),> 1000,> 1000,,,,
CC[C@H](C)[C@H](NC(=O)[C@H](C)NC(=O)[C@H](CCC(=O)O)NC(=O)[C@H](Cc1c[nH]cn1)NC(=O)[C@@H](NC(=O)[C@H](CS)NC(=O)[C@H](CC(=O)O)NC(=O)[C@H](CO)NC(=O)[C@H](Cc1ccc(O)cc1)NC(=O)[C@@H](N)CC(=O)O)[C@@H](C)CC)C(=O)N[C@@H](CCCCN)C(=O)N[C@H](C(=O)N[C@@H](CC(N)=O)C(=O)N[C@@H](Cc1ccc(O)cc1)C(=O)N[C@@H](CS)C(N)=O)[C@@H](C)O [β91-105] (H-DYSDCIHEAIKTNYC-NH2; N-terminus assumed),,,1/12,,,did not inhibit TSab activity

# Further lines, with some results ahead:
EC50 [1] [µM],EC50 [2] [µM],Serum samples in which TSab-stimulated cAMP was significantly inhibited (p<0.05) / samples tested (FRTL5 cells),Inhibition of TSab-stimulated cAMP generation (in words) (FRTL5 cells; listed as 71-85),Structure (SMILES),Inhibition of TSH binding to human thyroid membrane (in words) [2],Inhibition of TSab-stimulated cAMP generation (in words) (FRTL5 cells)
216 ± 18,242 ± 58,,,CC(C)C[C@H](NC(=O)[C@H](C)NC(=O)[C@H](Cc1ccc(O)cc1)NC(=O)[C@H](CCCCN)NC(=O)[C@@H]1CCCN1C(=O)[C@H](CC(C)C)NC(=O)[C@@H](N)Cc1ccccc1)C(=O)N[C@@H](CO)C(=O)N[C@@H](CCC(N)=O)C(=O)N[C@@H](CC(=O)O)C(=O)N[C@H](C(=O)N[C@@H](CS)C(=O)N[C@H](C(=O)N[C@@H](Cc1ccc(O)cc1)C(=O)N[C@@H](CCCNC(=N)N)C(N)=O)[C@@H](C)O)C(C)C [β41-55] (H-FLPKYALSQDVCTYR-NH2),,
> 1000,> 1000,,,CC[C@H](C)[C@H](NC(=O)[C@H](CCC(=O)O)NC(=O)[C@@H](NC(=O)[C@@H](N)[C@@H](C)O)C(C)C)C(=O)N1CCC[C@H]1C(=O)NCC(=O)N[C@@H](CS)C(=O)N1CCC[C@H]1C(=O)N[C@@H](CC(C)C)C(=O)N[C@@H](Cc1c[nH]cn1)C(=O)N[C@H](C(=O)N[C@@H](C)C(=O)N1CCC[C@H]1C(=O)N[C@@H](Cc1ccc(O)cc1)C(=O)N[C@@H](Cc1ccccc1)C(N)=O)C(C)C [β61-75] (H-TVEIPGCPLHVAPYF-NH2),,
,,1/5,effective only at the highest dose,CC(C)C[C@H](NC(=O)[C@H](C)NC(=O)[C@@H](NC(=O)[C@@H]1CCCN1C(=O)[C@H](Cc1ccc(O)cc1)NC(=O)[C@H](CO)NC(=O)[C@H](Cc1ccccc1)NC(=O)[C@H](Cc1ccc(O)cc1)NC(=O)[C@@H]1CCCN1C(=O)[C@H](C)NC(=O)[C@@H](N)C(C)C)C(C)C)C(=O)N[C@@H](CO)C(=O)N[C@@H](CS)C(=O)N[C@@H](CCCCN)C(=O)N[C@@H](CS)C(N)=O [β71-85] (H-VAPYFSYPVALSCKC-NH2; N-terminus assumed),inhibit binding of TSH to human thyroid membrane,significant inhibition only at the highest concentration
